What was measured:
monochoria = experiment: Herbicidal test for paddy field; format: in vivo, Monochoria vaginalis; conditions: 500 g/ha, dropwise addition to paddy water at 1.5 leaf stage of barnyard grass; glass house 25° C., 3 weeks; rank 0-5 vs non-treated district
Experimental: (§1) Wagner pots, each having an area of 1/5000 are, were packed with Ube soil (alluvial soil) and planted with seeds or tubers of young rice plant, barnyard grass, bulrush, Cyperus serotinus Rottb., arrowhead and monochoria. Then, the pots were filled with water to a depth of 3 cm.
(§2) Each wettable powder of the desired Compounds (I) shown in Tables 1 to 21, 24, 25, 28 and 29 prepared in accordance with Example 2 was diluted with water containing a surfactant (0.05%) and subjected to dropwise addition treatment by using pipet so that an effective concentration of the compound (I) in each herbicide became 500 g/ha at 1.5 leaf stage of barnyard grass.
(§3) These plants were controlled in a glass house at an average temperature of 25° C. for 3 weeks, and then herbicidal effects thereof were investigated.
(§4) The herbicidal effects are evaluated according to the following 6 ranks as compared with non-treated district. (0: normal development, 1: Less damaged, 2: Slightly damaged, 3: Moderately damaged, 4: Severely damaged, 5: All killed). Incidentally, “-” in the column means not investigated.

barnyard grass [1] = experiment: Herbicidal test for paddy field; format: in vivo, Eschinochloa crusgalli; conditions: 500 g/ha, dropwise addition to paddy water at 1.5 leaf stage of barnyard grass; glass house 25° C., 3 weeks; rank 0-5 vs non-treated district
Experimental: as §1, §2, §3, §4

soybean [2] = experiment: Soil treatment test for upland field; format: in vivo; set-up: key: 0 = normal development, 5 = all killed; conditions: 500 g/ha, 3 weeks, glass house 25° C.
Summary of the method: (§5)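 Pre-emergence: seeds sown in alluvial Ube soil, wettable powder diluted in water with 0.05% surfactant sprayed on soil surface at 500 g/ha. Plants held in glasshouse at 25° C average for 3 weeks. Damage scored 0 (normal) to 5 (all killed) versus untreated.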

corn [3] = experiment: Soil treatment test for upland field; format: in vivo; set-up: key: 0 = normal development, 5 = all killed; conditions: 500 g/ha, 3 weeks, glass house 25° C.
Summary of the method: as §5

wheat [4] = experiment: Soil treatment test for upland field; format: in vivo; set-up: key: 0 = normal development, 5 = all killed; conditions: 500 g/ha, 3 weeks, glass house 25° C.
Summary of the method: as §5

livid amaranth [5] = experiment: Soil treatment test for upland field; format: in vivo, Amaranthus lividus; set-up: key: 0 = normal development, 5 = all killed; conditions: 500 g/ha, 3 weeks, glass house 25° C.
Summary of the method: as §5

common lambsquarters [6] = experiment: Soil treatment test for upland field; format: in vivo, Chenopodium album; set-up: key: 0 = normal development, 5 = all killed; conditions: 500 g/ha, 3 weeks, glass house 25° C.
Summary of the method: as §5

Large crabgrass [7] = experiment: Soil treatment test for upland field; format: in vivo, Digitaria adscendens; set-up: key: 0 = normal development, 5 = all killed; conditions: 500 g/ha, 3 weeks, glass house 25° C.
Summary of the method: as §5

Xanthium pensylvanicum = experiment: Foliar spread test for upland field; format: in vivo; set-up: key: 0 = normal development, 5 = all killed; conditions: foliar spray, 500 ppm, 3 weeks, glass house 25° C.
Experimental: as §4
(§6) Wagner pots, each having an area of 1/5000 are, were packed with volcanic ash soil and then each seed of corn, soybean, cotton, wheat, solgum, sugar beat, Large crabgrass, barnyardgrjass, green foxtail, blackgrass, annual bluegrass, common lambsquarters, livid amaranth, velvetleaf, morning glory, Xanthium pensylvanicum and Cassia obtusifolia was planted, covered with soil and grown in a glass house at an average temperature of 25° C. for about 2 weeks.
(§7) Each wettable powder of the desired compounds (I) shown in Tables 1 to 21, 24, 25, 28 and 29 prepared in accordance with Example 2 was diluted to 500 ppm with water containing a surfactant (0.5%) and then uniformly sprayed on the above respective plants.
(§8) After these plants were controlled in a glass house at an average temperature of 25° C. for 3 weeks, the herbicidal effects thereof were investigated.
(§9) The herbicidal effects were evaluated according to the evaluation method described in the above (1).

Cassia obtusifolia = experiment: Foliar spread test for upland field; format: in vivo; set-up: key: 0 = normal development, 5 = all killed; conditions: foliar spray, 500 ppm, 3 weeks, glass house 25° C.
Experimental: as §4, §6, §7, §8, §9

livid amaranth [8] = experiment: Foliar spread test for upland field; format: in vivo, Amaranthus lividus; set-up: key: 0 = normal development, 5 = all killed (6 ranks vs. untreated); conditions: foliar spray, 500 ppm, 3 weeks, glass house 25° C.
Summary of the method: (§10)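 Seeds were sown in volcanic ash soil in Wagner pots and grown about 2 weeks in a glass house at an average 25° C. Wettable-powder formulations diluted to 500 ppm in water with 0.5% surfactant were sprayed uniformly over the plants. After 3 further weeks at 25° C, damage was scored 0 (normal) to 5 (all killed) against untreated plants.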

sugar beat [9] = experiment: Soil treatment test for upland field; format: in vivo; set-up: key: 0 = normal development, 5 = all killed; conditions: 500 g/ha, 3 weeks, glass house 25° C.
Summary of the method: as §5

solgum [10] = experiment: Soil treatment test for upland field; format: in vivo; set-up: key: 0 = normal development, 5 = all killed; conditions: 500 g/ha, 3 weeks, glass house 25° C.
Summary of the method: as §5

Large crabgrass [11] = experiment: Foliar spread test for upland field; format: in vivo, Digitaria adscendens; set-up: key: 0 = normal development, 5 = all killed (6 ranks vs. untreated); conditions: foliar spray, 500 ppm, 3 weeks, glass house 25° C.
Summary of the method: as §10

common lambsquarters [12] = experiment: Foliar spread test for upland field; format: in vivo, Chenopodium album; set-up: key: 0 = normal development, 5 = all killed (6 ranks vs. untreated); conditions: foliar spray, 500 ppm, 3 weeks, glass house 25° C.
Summary of the method: as §10

[13] = tested on: common Cocklebur (Xanthium strumarium); experiment: Soil treatment test for upland field; format: in vivo; conditions: 500 g/ha, 3 weeks, glass house 25° C.
Experimental: as §4
Wagner pots, each having an area of 1/5000 are, were packed with Ube soil (alluvial soil), and then each seed of corn, soybean, cotton, wheat, solgum, sugar beat, Large crabgrass, barnyard grass, green foxtail, blackgrass, annual bluegrass, common lambsquarters, livid amaranth, velvetleaf, morning glory, common Cocklebur (Xanthium strumarium) and sicklepod (Cassia obtusifolia) were planted and covered with soil.
Each wettable powder of the desired compounds (I) shown in Tables 1 to 21, 24, 25, 28 and 29 prepared in accordance with Example 2 was diluted with water containing a surfactant (0.05%) and uniformly sprayed on the surface of each soil so that an effective concentration of the compound (I) in each herbicide became 500 g/ha.
as §3, §9

soybean [14] = experiment: Foliar spread test for upland field; format: in vivo; set-up: key: 0 = normal development, 5 = all killed (6 ranks vs. untreated); conditions: foliar spray, 500 ppm, 3 weeks, glass house 25° C.
Summary of the method: as §10

cotton = experiment: Foliar spread test for upland field; format: in vivo; set-up: key: 0 = normal development, 5 = all killed (6 ranks vs. untreated); conditions: foliar spray, 500 ppm, 3 weeks, glass house 25° C.
Summary of the method: as §10

corn [15] = experiment: Foliar spread test for upland field; format: in vivo; set-up: key: 0 = normal development, 5 = all killed (6 ranks vs. untreated); conditions: foliar spray, 500 ppm, 3 weeks, glass house 25° C.
Summary of the method: as §10

sugar beat [16] = experiment: Foliar spread test for upland field; format: in vivo; set-up: key: 0 = normal development, 5 = all killed (6 ranks vs. untreated); conditions: foliar spray, 500 ppm, 3 weeks, glass house 25° C.
Summary of the method: as §10

wheat [17] = experiment: Foliar spread test for upland field; format: in vivo; set-up: key: 0 = normal development, 5 = all killed (6 ranks vs. untreated); conditions: foliar spray, 500 ppm, 3 weeks, glass house 25° C.
Summary of the method: as §10

solgum [18] = experiment: Foliar spread test for upland field; format: in vivo; set-up: key: 0 = normal development, 5 = all killed (6 ranks vs. untreated); conditions: foliar spray, 500 ppm, 3 weeks, glass house 25° C.
Summary of the method: as §10

morning glory [19] = experiment: Soil treatment test for upland field; format: in vivo, Ipomoea spps.; set-up: key: 0 = normal development, 5 = all killed; conditions: 500 g/ha, 3 weeks, glass house 25° C.
Summary of the method: as §5

barnyard grass [20] = experiment: Soil treatment test for upland field; format: in vivo, Eschinochloa crusgalli; set-up: key: 0 = normal development, 5 = all killed; conditions: 500 g/ha, 3 weeks, glass house 25° C.
Summary of the method: as §5

annual bluegrass [21] = experiment: Soil treatment test for upland field; format: in vivo, Poa annua; set-up: key: 0 = normal development, 5 = all killed; conditions: 500 g/ha, 3 weeks, glass house 25° C.
Summary of the method: as §5

blackgrass [22] = experiment: Soil treatment test for upland field; format: in vivo, Alopecurus aegualis; set-up: key: 0 = normal development, 5 = all killed; conditions: 500 g/ha, 3 weeks, glass house 25° C.
Summary of the method: as §5

velvetleaf [23] = experiment: Foliar spread test for upland field; format: in vivo, Abutilon theophrasti; set-up: key: 0 = normal development, 5 = all killed (6 ranks vs. untreated); conditions: foliar spray, 500 ppm, 3 weeks, glass house 25° C.
Summary of the method: as §10

arrowhead = experiment: Herbicidal test for paddy field; format: in vivo, Sagittaria pygmaea; conditions: 500 g/ha, dropwise addition to paddy water at 1.5 leaf stage of barnyard grass; glass house 25° C., 3 weeks; rank 0-5 vs non-treated district
Experimental: as §1, §2, §3, §4

barnyardgrjass = experiment: Foliar spread test for upland field; format: in vivo, Eschinochloa crusgalli; set-up: key: 0 = normal development, 5 = all killed (6 ranks vs. untreated); conditions: foliar spray, 500 ppm, 3 weeks, glass house 25° C.
Summary of the method: as §10

Cyperus serotinus Rottb. = experiment: Herbicidal test for paddy field; format: in vivo; conditions: 500 g/ha, dropwise addition to paddy water at 1.5 leaf stage of barnyard grass; glass house 25° C., 3 weeks; rank 0-5 vs non-treated district
Experimental: as §1, §2, §3, §4

green foxtail [24] = experiment: Foliar spread test for upland field; format: in vivo, Setaria viridis; set-up: key: 0 = normal development, 5 = all killed (6 ranks vs. untreated); conditions: foliar spray, 500 ppm, 3 weeks, glass house 25° C.
Summary of the method: as §10

annual bluegrass [25] = experiment: Foliar spread test for upland field; format: in vivo, Poa annua; set-up: key: 0 = normal development, 5 = all killed (6 ranks vs. untreated); conditions: foliar spray, 500 ppm, 3 weeks, glass house 25° C.
Summary of the method: as §10

green foxtail [26] = experiment: Soil treatment test for upland field; format: in vivo, Setaria viridis; set-up: key: 0 = normal development, 5 = all killed; conditions: 500 g/ha, 3 weeks, glass house 25° C.
Summary of the method: as §5

bulrush = experiment: Herbicidal test for paddy field; format: in vivo, Scrips juncoides; conditions: 500 g/ha, dropwise addition to paddy water at 1.5 leaf stage of barnyard grass; glass house 25° C., 3 weeks; rank 0-5 vs non-treated district
Experimental: as §1, §2, §3, §4

morning glory [27] = experiment: Foliar spread test for upland field; format: in vivo, Ipomoea spps.; set-up: key: 0 = normal development, 5 = all killed (6 ranks vs. untreated); conditions: foliar spray, 500 ppm, 3 weeks, glass house 25° C.
Summary of the method: as §10

blackgrass [28] = experiment: Foliar spread test for upland field; format: in vivo, Alopecurus aegualis; set-up: key: 0 = normal development, 5 = all killed (6 ranks vs. untreated); conditions: foliar spray, 500 ppm, 3 weeks, glass house 25° C.
Summary of the method: as §10

velvetleaf [29] = experiment: Soil treatment test for upland field; format: in vivo, Abutilon theophrasti; set-up: key: 0 = normal development, 5 = all killed; conditions: 500 g/ha, 3 weeks, glass house 25° C.
Summary of the method: as §5

SMILES: CCC(Oc1cc(C)nc(SC)n1)c1nc2cc(Cl)ccc2o1 (stereo not drawn) [Compound 1-e-64]
- Effects Monochoria (monochoria): 4

SMILES: CCC(Oc1cc(C(F)(F)F)ncn1)c1nc2cc(Cl)ccc2o1 (stereo not drawn) [Compound 1-e-66]
- Effects Barnyardgrass (barnyard grass [1]): 2
- Effects Monochoria (monochoria): 5

SMILES: CCCC(Oc1cc(C)nc(C#N)n1)c1nc2cc(C#N)ccc2o1 (stereo not drawn) [Compound 1-e-70]
- Effects Soybean (soybean [2]): 0
- Effects Corn (corn [3]): 0
- Effects Wheat (wheat [4]): 0
- Effects Monochoria (monochoria): 3
- Effects Livid amaranth (livid amaranth [5]): 5
- Effects Common lambsquarters (common lambsquarters [6]): 3
- Effects Large crabgrass (Large crabgrass [7]): 2

SMILES: FC(F)(F)c1cccc(Oc2cccc(-c3nc4cc(C(F)(F)F)ccc4o3)n2)c1 [I-a-13]
- Effects Common Cocklebur (Xanthium pensylvanicum): 4
- Effects Sicklepod (Cassia obtusifolia): 5
- Effects Livid amaranth (livid amaranth [8]): 5
- Effects Corn (corn [3]): 1
- Effects Sugar beat (sugar beat [9]): 5
- Effects Wheat (wheat [4]): 1
- Effects Solgum (solgum [10]): 0
- Effects Large crabgrass (Large crabgrass [11]): 3
- Effects Common lambsquarters (common lambsquarters [12]): 5
- Effects Barnyardgrass (barnyard grass [1]): 2
- Effects Common Cocklebur [13]: 3
- Effects Soybean (soybean [14]): 3
- Effects Sotton (cotton): 5
- Effects Corn (corn [15]): 2
- Effects Sugar beat (sugar beat [16]): 4
- Effects Wheat (wheat [17]): 2
- Effects Solgum (solgum [18]): 2
- Effects Morning glory (morning glory [19]): 4
- Effects Barnyardgrass (barnyard grass [20]): 4
- Effects Annual bluegrass (annual bluegrass [21]): 5
- Effects Blackgrass (blackgrass [22]): 4
- Effects Velvetleaf (velvetleaf [23]): 4
- Effects Arrowhead (arrowhead): 1
- Effects Barnyardgrass (barnyardgrjass): 2
- Effects Livid amaranth (livid amaranth [5]): 5
- Effects Common lambsquarters (common lambsquarters [6]): 5
- Effects Cyperus serotinus Rottb. (Cyperus serotinus Rottb.): 0
- Effects Green foxtail (green foxtail [24]): 5
- Effects Large crabgrass (Large crabgrass [7]): 5
- Effects Annual bluegrass (annual bluegrass [25]): 4
- Effects Green foxtail (green foxtail [26]): 5
- Effects Bulrush (bulrush): 0
- Effects Morning glory (morning glory [27]): 5
- Effects Blackgrass (blackgrass [28]): 3
- Effects Velvetleaf (velvetleaf [29]): 5
